Where “and” joins values, the source holds several entries; their conditions need not be identical. Identical values can stand only once. Numbers after ± are expanded uncertainties.
How the values were obtained:
[1] = refractive index (Na D-line) (dimensionless); settings: 101.33 kPa, Liquid, Standard Abbe refractometry
[2] = for surface tension liquid-gas: Ring tensiometer; for viscosity / speed of sound / mass density: 101 kPa, Liquid; for viscosity: Capillary tube (Ostwald / Ubbelohde) method; for speed of sound: Sing-around technique in a fixed-path interferometer; for mass density: Vibrating tube method
[3] = refractive index (Na D-line) (dimensionless); xn = mol fraction of the nth substance listed; settings: 101 kPa, Liquid, Standard Abbe refractometry, x1 = 1
[4] = xn = mol fraction of the nth substance listed; settings: x1 = 1; for surface tension liquid-gas: Ring tensiometer; for viscosity / speed of sound / mass density: 101 kPa, Liquid; for viscosity: Capillary tube (Ostwald / Ubbelohde) method; for speed of sound: Sing-around technique in a fixed-path interferometer; for mass density: Vibrating tube method

C[C@H](O)CN [(2S)-1-amino-2-propanol]
Settings	mass density, [2] [kg/m3]	refractive index, [1]	speed of sound, [2] [m/s]	surface tension liquid-gas, [2] [mN/m]	viscosity, [2] [mPa·s]
293.15 K	960.8 ± 0.8	1.448 ± 0.0007	1560.8 ± 3.4	37.6 ± 0.6	31.67 ± 0.46
303.15 K	952.8 ± 0.8	1.4442 ± 0.0007	1528.3 ± 3.4	36.9 ± 0.6	17.71 ± 0.29
313.15 K	944.7 ± 0.8	1.4401 ± 0.0007	1495.7 ± 3.4	36.3 ± 0.6	10.65 ± 0.16
323.15 K	936.5 ± 0.8	1.436 ± 0.0007	1462.9 ± 3.4	35.9 ± 0.6	6.961 ± 0.11

CC(O)CNCC(C)O (stereo not given) [N-(2-hydroxypropyl)-2-hydroxy-1-propanamine]
323.15 K
Settings	mass density [kg/m3]	refractive index	speed of sound [m/s]	surface tension liquid-gas [mN/m]	viscosity [mPa·s]
[1]	–	1.4512 ± 0.0008	–	–	–
[2]	984.1 ± 0.9	–	1420.3 ± 3.4	34.5 ± 0.6	125.73 ± 3.3

CN1CCCC1=O [N-methylpyrrolidone] + C[C@H](O)CN
Settings	mass density, [4] [kg/m3]	refractive index, [3]	speed of sound, [4] [m/s]	surface tension liquid-gas, [4] [mN/m]	viscosity, [4] [mPa·s]
293.15 K	1033.6 ± 0.5	1.4688 ± 0.0005	1567.9 ± 2.9	42.7 ± 0.6	1.899 ± 0.018
303.15 K	1024.7 ± 0.5	1.4657 ± 0.0006	1529.7 ± 2.9	41.5 ± 0.6	1.592 ± 0.015
313.15 K	1015.7 ± 0.5	1.4621 ± 0.0006	1491.2 ± 2.9	40.8 ± 0.6	1.353 ± 0.013
323.15 K	1006.8 ± 0.5	1.4579 ± 0.0006	1454.6 ± 2.9	40 ± 0.6	1.17 ± 0.011

CN1CCCC1=O [N-methylpyrrolidone] + CC(O)CNCC(C)O
Settings	mass density, [4] [kg/m3]	refractive index, [3]	speed of sound, [4] [m/s]	surface tension liquid-gas, [4] [mN/m]	viscosity, [4] [mPa·s]
293.15 K	1033.6 ± 0.5	1.4688 ± 0.0005	1567.9 ± 2.9	42.7 ± 0.6	1.899 ± 0.018
303.15 K	1024.7 ± 0.5	1.4657 ± 0.0006	1529.7 ± 2.9	41.3 ± 0.6	1.592 ± 0.015
313.15 K	1015.7 ± 0.5	1.4621 ± 0.0006	1491.2 ± 2.9	41 ± 0.6	1.353 ± 0.013
323.15 K	1006.8 ± 0.5	1.4579 ± 0.0006	1454.6 ± 2.9	39.8 ± 0.6	1.17 ± 0.011

CN1CCCC1=O [N-methylpyrrolidone]
Settings	mass density, [2] [kg/m3]	refractive index, [1]	speed of sound, [2] [m/s]	surface tension liquid-gas, [2]	viscosity, [2] [mPa·s]
293.15 K	1033.6 ± 0.5	1.4688 ± 0.0005	1567.9 ± 2.9	42.7 ± 0.6 mN/m	1.899 ± 0.018
303.15 K	1024.7 ± 0.5	1.4657 ± 0.0006	1529.7 ± 2.9	41.5 ± 0.6 mN/m and 41.3 ± 0.6 mN/m	1.592 ± 0.015
313.15 K	1015.7 ± 0.5	1.4621 ± 0.0006	1491.2 ± 2.9	40.8 ± 0.6 mN/m and 41 ± 0.6 mN/m	1.353 ± 0.013
323.15 K	1006.8 ± 0.5	1.4579 ± 0.0006	1454.6 ± 2.9	40 ± 0.6 mN/m and 39.8 ± 0.6 mN/m	1.17 ± 0.011
